Results as given in US10100058B2, “Fused heterocyclic compounds as CaM kinase inhibitors” (Gilead Sciences, Inc., priority 2016, dated 2018).

The compounds below were run against recombinant CaMKIIδ (Homo sapiens (Human), UniProt Q13557) (assay: CaMKIIδ biochemical assay (HTRF)). Conditions: 10 pM CaMKIIδ, 110 nM calmodulin, 12 μM ATP, 1 hour; read-out: CAMKIID-HTRF-384V2 (IC50 - nM).
Experimental: CaMKIIδ Biochemical Assay
The biochemical activity of recombinant CaMKIIδ was measured by monitoring the phosphorylation of a target peptide using Homogenous Time Resolved Fluorescence (HTRF) technology from CisBio Bioassays.

IC50	SMILES
0.18 nM	CCN(CC)[C@@H](C)CNC(=O)c1cc(-c2cnn3ccc(-c4cccs4)nc23)nc(N2CC(O)(CC)C2)c1 [Example 214, (S)—N-(2-(diethylamino)propyl)-2-(3-ethyl-3-hydroxyazetidin-1-yl)-6-(5-(thiophen-2-yl)pyrazolo[1,5-a]pyrimidin-3-yl)isonicotinamide]
14.4 nM	CCN[C@@H](C)CNC(=O)c1ccnc(-c2cnn3ccc(-c4ccccc4)nc23)c1 [Example 42, (S)—N-(2-(ethylamino)propyl)-2-(5-phenylpyrazolo[1,5-a]pyrimidin-3-yl)isonicotinamide]
1.61 nM	CCN(CC)[C@@H](C)CNC(=O)c1cc(-c2cnn3ccc(-c4cccs4)nc23)nc(N2CCC23CCC3)c1 [Example 250, (S)—N-(2-(diethylamino)propyl)-2-(1-azaspiro[3.3]heptan-1-yl)-6-(5-(thiophen-2-yl)pyrazolo[1,5-a]pyrimidin-3-yl)isonicotinamide]
0.34 nM	CCN(CC)[C@@H](C)CNC(=O)c1cc(OCCCOC)nc(-c2cnn3ccc(-c4cccs4)nc23)c1 [Example 351, (S)—N-(2-(diethylamino)propyl)-2-(3-methoxypropoxy)-6-(5-(thiophen-2-yl)pyrazolo[1,5-a]pyrimidin-3-yl)isonicotinamide]
95.5 nM	CN1CCC[C@H]1CNC(=O)c1ccnc(-c2cnn3ccc(-c4cccs4)nc23)c1 [Example 35, (S)—N-((1-methylpyrrolidin-2-yl)methyl)-2-(5-(thiophen-2-yl)pyrazolo[1,5-a]pyrimidin-3-yl)isonicotinamide]
0.18 nM	CCN(CC)[C@@H](C)CNC(=O)c1cc(-c2cnn3ccc(-c4cccs4)nc23)nc(N2CCC(C)(O)CC2)c1 [Example 163, (S)—N-(2-(diethylamino)propyl)-2-(4-hydroxy-4-methylpiperidin-1-yl)-6-(5-(thiophen-2-yl)pyrazolo[1,5-a]pyrimidin-3-yl)isonicotinamide]
7.6 nM	COc1cc(C(=O)N2CC[C@H](N)C2)cc(-c2cnn3ccc(-c4cccs4)nc23)n1 [Example 110, (S)-(3-aminopyrrolidin-1-yl)(2-methoxy-6-(5-(thiophen-2-yl)pyrazolo[1,5-a]pyrimidin-3-yl)pyridin-4-yl)methanone]
35.2 nM	CCN[C@@H](C)CNC(=O)c1cc(-c2cnn3ccc(-c4ccccc4)nc23)nc(N2CC(OC)C2)c1 [Example 174, (S)—N-(2-(ethylamino)propyl)-2-(3-methoxyazetidin-1-yl)-6-(5-phenylpyrazolo[1,5-a]pyrimidin-3-yl)isonicotinamide]
0.8 nM	CCN(CC)[C@@H](C)CNC(=O)c1cc(-c2cnn3ccc(-c4cccs4)nc23)nc(N(C)S(C)(=O)=O)c1 [Example 177, (S)—N-(2-(diethylamino)propyl)-2-((N-methylmethyl)sulfonamido)-6-(5-(thiophen-2-yl)pyrazolo[1,5-a]pyrimidin-3-yl)isonicotinamide]
0.11 nM	CCNC(=O)Nc1cc(C(=O)NC[C@H](C)N(CC)CC)cc(-c2cnn3ccc(-c4cccs4)nc23)n1 [Example 185, (S)—N-(2-(diethylamino)propyl)-2-(3-ethylureido)-6-(5-(thiophen-2-yl)pyrazolo[1,5-a]pyrimidin-3-yl)isonicotinamide]
0.15 nM	CCN(CC)[C@@H](C)CNC(=O)c1cc(-c2cnn3ccc(-c4cccs4)nc23)nc(N2CC(NC(C)=O)C2)c1 [Example 198, (S)-2-(3-acetamidoazetidin-1-yl)-N-(2-(diethylamino)propyl)-6-(5-(thiophen-2-yl)pyrazolo[1,5-a]pyrimidin-3-yl)isonicotinamide]
0.18 nM	CCN(CC)[C@@H](C)CNC(=O)c1cc(-c2cnn3ccc(-c4cccs4)nc23)nc(N2CC(OC(F)F)C2)c1 [Example 144, (S)—N-(2-(diethylamino)propyl)-2-(3-(difluoromethoxy)azetidin-1-yl)-6-(5-(thiophen-2-yl)pyrazolo[1,5-a]pyrimidin-3-yl)isonicotinamide]
0.16 nM	CCN(CC)[C@@H](C)CNC(=O)c1cc(-c2cnn3ccc(-c4cccs4)nc23)nc(N2CC(CO)(CO)C2)c1 [Example 244, (S)-2-(3,3-bis(hydroxymethyl)azetidin-1-yl)-N-(2-(diethylamino)propyl)-6-(5-(thiophen-2-yl)pyrazolo[1,5-a]pyrimidin-3-yl)isonicotinamide]
216 nM	CC(CN)NC(=O)c1ccnc(-c2cnn3ccc(-c4ccccc4)nc23)c1 (stereo not drawn) [Example 62, N-(1-aminopropan-2-yl)-2-(5-phenylpyrazolo[1,5-a]pyrimidin-3-yl)isonicotinamide]
0.42 nM	CCN(CC)[C@@H](C)CNC(=O)c1cc(-c2cnn3ccc(-c4cccs4)nc23)nc(N2CC[C@H]2C(=O)N2CC3CC3C2)c1 (stereo partly drawn) [Example 285, 2-((2S)-2-(3-azabicyclo[3.1.0]hexane-3-carbonyl)azetidin-1-yl)-N—((S)-2-(diethylamino)propyl)-6-(5-(thiophen-2-yl)pyrazolo[1,5-a]pyrimidin-3-yl)isonicotinamide]
1.87 nM	CCN(CC)[C@@H](C)CNC(=O)c1cc(Nc2ncc[nH]2)nc(-c2cnn3ccc(-c4cccs4)nc23)c1 [Example 241, (S)-2-((1H-imidazol-2-yl)amino)-N-(2-(diethylamino)propyl)-6-(5-(thiophen-2-yl)pyrazolo[1,5-a]pyrimidin-3-yl)isonicotinamide]
6.05 nM	O=C(NC[C@@H]1CCN1)c1ccnc(-c2cnn3ccc(-c4cccs4)nc23)c1 [Example 7, (S)—N-(azetidin-2-ylmethyl)-2-(5-(thiophen-2-yl)pyrazolo[1,5-a]pyrimidin-3-yl)isonicotinamide]
0.14 nM	CCN(CC)[C@@H](C)CNC(=O)c1cc(-c2cnn3ccc(-c4cccs4)nc23)nc(N2CCNC(=O)C2)c1 [Example 314, (S)—N-(2-(diethylamino)propyl)-2-(3-oxopiperazin-1-yl)-6-(5-(thiophen-2-yl)pyrazolo[1,5-a]pyrimidin-3-yl)isonicotinamide]
0.38 nM	CCN(CC)[C@@H](C)CNC(=O)c1cc(-c2cnn3ccc(-c4cccs4)nc23)nc(N2C[C@@H]3C[C@H]2CO3)c1 [Example 253, 2-((1S,4S)-2-oxa-5-azabicyclo[2.2.1]heptan-5-yl)-N—((S)-2-(diethylamino)propyl)-6-(5-(thiophen-2-yl)pyrazolo[1,5-a]pyrimidin-3-yl)isonicotinamide]
7.03 nM	CCN(CC)C(C)CNC(=O)c1ccnc(-c2cnn3ccc(-c4ccccc4)nc23)c1 (stereo not drawn) [Example 37, N-(2-(diethylamino)propyl)-2-(5-phenylpyrazolo[1,5-a]pyrimidin-3-yl)isonicotinamide]
26 nM	CCN(CC)[C@@H](C)CNC(=O)c1cc(-c2cnn3ccc(-c4cncnc4)nc23)nc(N2CC(OC)C2)c1 [Example 166, (S)—N-(2-(diethylamino)propyl)-2-(3-methoxyazetidin-1-yl)-6-(5-(pyrimidin-5-yl)pyrazolo[1,5-a]pyrimidin-3-yl)isonicotinamide]
31.9 nM	CC(C)NC(CNC(=O)c1ccnc(-c2cnn3ccc(-c4ccccc4)nc23)c1)C(C)C (stereo not drawn) [Example 73, N-(2-(isopropylamino)-3-methylbutyl)-2-(5-phenylpyrazolo[1,5-a]pyrimidin-3-yl)isonicotinamide]
0.26 nM	CCN(CC)[C@@H](C)CNC(=O)c1cc(-c2cnn3ccc(-c4cccs4)nc23)nc(N2CC(NS(=O)(=O)C(C)C)C2)c1 [Example 183, (S)—N-(2-(diethylamino)propyl)-2-(3-((1-methylethyl)sulfonamido)azetidin-1-yl)-6-(5-(thiophen-2-yl)pyrazolo[1,5-a]pyrimidin-3-yl)isonicotinamide]
205 nM	N[C@H](CNC(=O)c1ccnc(-c2cnn3ccc(-c4ccccc4)nc23)c1)COc1ncccn1 [Example 66, (R)—N-(2-amino-3-(pyrimidin-2-yloxy)propyl)-2-(5-phenylpyrazolo[1,5-a]pyrimidin-3-yl)isonicotinamide]
0.18 nM	CCN(CC)[C@@H](C)CNC(=O)c1cc(NC2CC2)nc(-c2cnn3ccc(-c4cccs4)nc23)c1 [Example 213, (S)-2-(cyclopropylamino)-N-(2-(diethylamino)propyl)-6-(5-(thiophen-2-yl)pyrazolo[1,5-a]pyrimidin-3-yl)isonicotinamide]
0.22 nM	CCN(CC)[C@@H](C)CNC(=O)c1cc(-c2cnn3ccc(-c4cccs4)nc23)nc(N2CC[C@H]2C(=O)N2CC(F)(F)C2)c1 [Example 294, N—((S)-2-(diethylamino)propyl)-2-((S)-2-(3,3-difluoroazetidine-1-carbonyl)azetidin-1-yl)-6-(5-(thiophen-2-yl)pyrazolo[1,5-a]pyrimidin-3-yl)isonicotinamide]
32.8 nM	CCN(CC)[C@@H](C)CNC(=O)c1cc(-c2cnn3ccc(-c4cccs4)nc23)nc(N2CCC[C@@H]2C(=O)NC)c1 [Example 320, N—((S)-2-(diethylamino)propyl)-2-((R)-2-(methylcarbamoyl)pyrrolidin-1-yl)-6-(5-(thiophen-2-yl)pyrazolo[1,5-a]pyrimidin-3-yl)isonicotinamide]

SMILES	IC50
COC1CN(c2cc(C(=O)N3[C@H]4CCNC[C@@H]3CC4)cc(-c3cnn4ccc(-c5cccs5)nc34)n2)C1 [Example 326, ((1S,6R)-3,9-diazabicyclo[4.2.1]nonan-9-yl)(2-(3-methoxyazetidin-1-yl)-6-(5-(thiophen-2-yl)pyrazolo[1,5-a]pyrimidin-3-yl)pyridin-4-yl)methanone]	3.29 nM
O=C(c1ccnc(-c2cnn3ccc(-c4ccccc4)nc23)c1)N1C2CCCC1CNCC2 (stereo not drawn) [Example 91]	32.8 nM
COCCNc1cc(C(=O)N2CC3CCC(C2)NC3)cc(-c2cnn3ccc(-c4cccs4)nc23)n1 (stereo not drawn) [Example 323, (-3,6-diazabicyclo[3.2.2]nonan-3-yl)(2-((2-methoxyethyl)amino)-6-(5-(thiophen-2-yl)pyrazolo[1,5-a]pyrimidin-3-yl)pyridin-4-yl)methanone]	3.22 nM
